Results: patent US20220233133A1, “HUMAN TACTILE PREPULSE […]” (President and Fellows of Harvard College, priority 2019, published 2022)

Key:
[1] = system: Shank3 conditional mutant mice; test: Tactile PPI performance in Shank3 conditional mutant mice; assay type: in vivo; settings: 30 minutes following administration of 2 mg/kg, versus saline
Procedure: (§1) Tactile PPI performance in Mecp2 or Shank3 conditional mutant mice, and their control littermates, 30 minutes following administration of either saline or 2 mg/kg compound 5.

[2] = system: Mecp2 conditional mutant mice; test: Tactile PPI performance in Mecp2 conditional mutant mice; assay type: in vivo; settings: 30 minutes following administration of 2 mg/kg, versus saline
Procedure: as §1

ASD mouse models = settings: range of ASD mouse models (Orefice et al., 2019, Cell 178, 867-886); cited from earlier work

Row | Compound | hairy skin hypersensitivity (tactile PPI performance) [1] | hairy skin hypersensitivity (tactile PPI performance) [2] | anxiety (ASD mouse models)
1 | NC1C=C(C(=O)O)CCC1 (stereo not drawn) [compound 5, 3-aminocyclohex-1-ene-1-carboxylic acid] | reduces hairy skin hypersensitivity | reduces hairy skin hypersensitivity | –
2 | Nc1[nH]c(=O)nc2nc[nH]c12 [isoguanine] | – | – | useful to reduce
